Data published in patent publication US8524978B2, “Composition for production of plant body having improved sugar content, and use thereof” (Japan Science and Technology Agency, priority 2007, dated 2013).

Tests used:
Assay type in all cases: in vivo
Lycopersicum esculentum [1] = assay: Sugar content determination of Lycopersicum esculentum fruit with refractometer (Example 2); conditions: 0.5 mM applied as in Example 1; compared to Cont and Cont2 Sunny conditions; ANOVA 5%
Source text: Cultivated were Lycopersicum esculentum plants to which GSSG or GSH was applied by the method described in Example 1. Then, obtained fruit of the plants was subjected to sugar content determination using “Pocket” Refractometer APAL-1 (ATAGO CO., LTD.).
For comparison, Lycopersicum esculentum plants were cultivated under two types of conditions (referred to as “Cont” and “Cont2 Sunny”). In the Cont condition, Lycopersicum esculentum plants were cultivated by the same method as in Example 1, except that GSSG and GSH were not applied. In the Cont2 Sunny condition, a Lycopersicum esculentum plant was not applied with GSSG or GSH and was independently cultivated at a site sufficiently irradiated with sunlight so that illuminance on the Lycopersicum esculentum plant becomes 100%. In the Cont condition and a condition in which GSSG or GSH was applied, the plants were planted at intervals of 40 cm to 50 cm. In this case, a plant may intercept light irradiating another plant. Therefore, illuminance on such plants becomes less than 100%.
In the condition in which GSSG was applied, the condition in which GSH is applied, and the Cont condition, three Lycopersicum esculentum plants were cultivated, respectively. In the Cont2 Sunny condition, one Lycopersicum esculentum plant was cultivated. […]

Lycopersicum esculentum [2] = assay: Change of sugar content over time after one application of GSH or GSSG (Example 6); conditions: 50 mL of 0.5 mM once at root 90 days after sowing; fruit harvested day 0 to day 4
Procedure: In the present example, a sugar content of a plant was determined after a substance for regulating an oxidation-reduction state of a cell was applied to the plant. The substance for regulating an oxidation-reduction state of a cell was GSH or GSSG. As in the case of Example 1, Lycopersicum esculentum was used as the plant. Specifically, the following operations were carried out.
Ninety days after sowing of Lycopersicum esculentum seeds, Lycopersicum esculentum plants were subjected to a GSH or GSSG treatment. The Lycopersicum esculentum plants were cultivated by the same method as in Example 1 except for the GSH or GSSG treatment. The GSH or GSSG treatment was such that 50 mL of 0.5 mM GSSH or 0.5 mM GSH (adjusted with 0.1N NaOH to be at pH 7) was applied once at a root per plant. Then, fruit of the plants was harvested every day from the 0th day until the 4th day after application of GSH or GSSG, and subjected to sugar content determination. […] FIG. 3 is a graph showing a determination result of relation between sugar content and the number of days from an application day of GSH or GSSG. In FIG. 3, the vertical scale indicates sugar content (Brix, unit: %) and the horizontal scale indicates days from the application day. In FIG. 3, lines labeled with circles, triangles, and squares show results of the plants applied with GSH, GSSG, and no GSH and no GSSG, respectively. […]

[3] = test system: Vitis labrusca (Delaware); assay: Cultivation of Vitis labrusca with GSSG or GSH, sensory test (Example 5)
Procedure: In the present invention, Vitis labrusca was cultivated. Specifically, immediately after flowering of a Vitis labrusca (Delaware) plant, a mixed solution of 1 mM gibberellin (GA3) and 1 mM of an agent was applied to anthotaxy of the plant. The agent was GSSG or GSH. Then, the plant was coated with the agent and thereafter produced fruit was harvested. For comparison, a Vitis labrusca plant was cultivated in the same way, except that GA3, but not GSSG or GSH, was applied, and fruit thereof was harvested and subjected to a sensory test described below.
The fruit harvested was subjected to a sensory test of sugar content. As a result, it was determined that fruit of the plant applied with GA3 and GSSG or GSH increased in sugar content compared to that of the plant applied with only GA3. Further, it was determined that the plant applied with GSSG and GA3 increased in size of fruit.

Fragaria ananassa [4] = assay: Sugar content determination of Fragaria ananassa fruit with refractometer (Example 10); conditions: 50 mL of 0.2 or 0.5 mM GSSG, or 0.4 or 0.5 mM GSH, once a week at root; significance level 5%
Procedure: (§1) First, Fragaria ananassa seedlings were transplanted to a planter. In the planter, 6 L of vermiculite (ASAHI INDUSTRIES Co., LTD.), 3 L of KUREHA horticultural soil (KUREHA CORPORATION), and 3 L of vermiculite were layered as a lower, middle, and upper layers, respectively.
(§2) During cultivation of Fragaria ananassa plants, 50 mL of 0.2 mM or 0.5 mM GSSG or 50 mL of 0.4 mM or 0.5 mM GSH (adjusted with 0.1N NaOH to be at pH7) was applied once a week at a root per plant. The plants were grown for 63 days without being subjected to bud removal. For comparison, a Fragaria ananassa plant was grown under the same condition, except that GSSG and GSH were not applied. To the plants of any condition, 3 g of Kumiai phosphorate ammonium nitrate potassium S-604 (Chisso Asahi Fertilizer Co., Ltd.) was applied as an additional fertilizer once in 2 weeks.
Further, the fruit obtained was subjected to sugar content determination using “Pocket” Refractometer APAL-1 (ATAGO CO., LTD.). For comparison, fruit not applied with GSSG or GSH was also subjected to the sugar content determination. […] In FIG. 7, the vertical scale indicates sugar content (Brix, unit: %).

Lycopersicum esculentum [5] = assay: Cultivation of Lycopersicum esculentum with GSSG or GSH, sensory tests of fruit (Example 1); conditions: 50 mL of 0.5 mM at root twice a week, 60 days
Source text: In the present example, Lycopersicum esculentum was cultivated with use of GSSG or GSH. Details of cultivation are described below.
First, Lycopersicum esculentum seedlings (TAKII & CO. Ltd., product name: Osama tomato reika) were transplanted into a hydroponic culture pot ( 1/2000 a). In the hidroponic culture pot, 6 L of vermiculite (ASAHI INDUSTRIES Co., LTD.), 3 L of KUREHA horticultural soil (KUREHA CORPORATION), and 3 L of vermiculite were layered as a lower, middle, and upper layers, respectively.
During the cultivation of Lycopersicum esculentum, 50 mL of 0.5 mM GSSG or 0.5 mM GSH (adjusted with 0.1N NaOH to be at pH 7) was applied twice a week at a root per plant. The Lycopersicum esculentum plants were grown for 60 days without being subjected to bud removal. Last 10 days was used as a harvest period for harvesting fruit of the plants. For comparison, a Lycopersicum esculentum plant was grown under the same condition, except that GSSG and GSH were not applied. To the plants of any condition, 3 g of Kumiai phosphorate ammonium nitrate potassium S-604 (Chisso Asahi Fertilizer Co., Ltd.) was applied as an additional fertilizer once in 2 weeks.
(§3) Next, the fruit harvested was subjected to sensory tests of sugar content and the like. As a result, it was determined that fruit of the plant applied with GSSG increased in sugar content compared to that of the plant not applied with GSSG or GSH. Further, it was determined that the plant applied with GSSG increased in number of fruit. It was determined that fruit of the plant applied with GSH increased in sugar content and acidity.

Fragaria ananassa [6] = assay: Cultivation of Fragaria ananassa with GSSG or GSH, sensory tests of fruit (Example 10); conditions: 50 mL of 0.2 or 0.5 mM GSSG, or 0.4 or 0.5 mM GSH, once a week at root, 63 days
Procedure: In the present example, Fragaria ananassa was cultivated with use of GSSG or GSH. Details of cultivation are described below.
as §1, §2
as §3, with “sugar content and decreased in acidity compared to” for “sugar content compared to”, “It was also determined that” for “It was determined that”

## N[C@@H](CCC(=O)N[C@@H](CS)C(=O)NCC(=O)O)C(=O)O [GSH, reduced glutathione]
Lycopersicum esculentum [1]
  sugar content of fruit (Brix): significantly increased
Lycopersicum esculentum [2]
  sugar content of fruit (Brix) after application: rapidly improve
[3]; 1 mM agent mixed with 1 mM gibberellin (GA3), applied to anthotaxy, compared to plant applied with only GA3
  sugar content of fruit (sensory test): increased
[3]; applied without GA3
  sugar content: increased
Fragaria ananassa [4]
  sugar content of fruit (Brix), ANOVA versus fruit not applied: significant difference
Lycopersicum esculentum [5]
  acidity of fruit (sensory test): increased
Lycopersicum esculentum [5]; compared to plant not applied with GSSG or GSH
  sugar content of fruit (sensory test): increased
Fragaria ananassa [6]
  acidity of fruit (sensory test): increased
Fragaria ananassa [6]; vs plant not applied
  sugar content of fruit (sensory test): increased
